Assay results reported in US20100009352A1, “Method for Modeling a Disease” (priority 2006, published 2010).

What was measured:
PC12-HttQ103 cells = assay: cellular systems biology model of Huntington's Disease, mutant huntingtin-GFP expression; type: cell-based, rat
Method: FIG. 10 are example cellular systems biology profiling images for a model of Huntington's Disease (HD). PC12-HttQ103 cells were seeded in 384-well plates +/− NGF (100 ng/ml). At two days post-seeding cells were induced with 200 nM RSL1 +/− NGF (100 ng/ml) for 48 h. Following fixation, cells were stained with Hoechst and with antibodies raised against tubulin and phospho c-Jun. Tubulin was detected with a donkey anti mouse Cy3 conjugated secondary antibody and phospho c-Jun was visualized with a donkey anti rabbit Cy5 conjugated secondary antibody. Images were captured with an HCS instrument and Hoechst-stained nuclei, mutant huntingtin-GFP expression, phospho c-Jun labeled nuclei, and tubulin-stained cells are shown. […]
FIG. 11 is a graph illustrating that mutant huntingtin aggregation correlates with cell loss. […] Images were captured with an HCS instrument and the cell number and % cells with aggregates were determined with standard imaging algorithms. […]
FIG. 14. are graphs illustrating little correlation between aggregate formation and differentiation PC12-Htt-Q103 cells were treated and stained as stated in FIG. 10. Aggregate formation in untreated and NGF-treated populations was measured with standard imaging algorithms. Mean neurite count and mean branch point distance form the cell body was also measured. […]

PC12T cells = assay: cellular systems biology profile of GFP-Htt aggregate formation with compound treatment; type: cell-based
Method: To test if there was an interrelationship between the modulation of the microtubule cytoskeleton and the formation of huntingtin protein (Htt) aggregates, cells were induced to produce fluorescently labeled huntingtin protein (GFP-Htt). Soon thereafter, the same Cells were treated with a set of compounds including several microtubule modulators. Cellular systems biology profiling can be used to define the interrelationships between several cellular features including microtubule cytoskeletal stability, cell cycle regulation, GFP-Htt aggregate formation, and nuclear morphology.
In one embodiment, 7.5×10^+6 PC12T cells were plated into T25 tissue culture flasks and panasterone A was added to a final concentration of 5 μM. After an overnight incubation, the cells were trypsinized and replated onto collagen I coated 384-well microplates at a density of 10000 cells per well in medium containing 1 μM panasterone A (24 h after the first panasterone A treatment began). Cells were treated for 26 h with 14 compounds at 12 concentrations each ranging from <1 nM to 50 μM. At the end of the incubation period, cells were fixed with 3.7% formaldehyde, permeabilized with 0.5% Triton X-100 detergent, and labeled with primary-secondary antibody pairs to measure microtubule stability (α-tubulin) and mitotic events (phospho-histone […]). Cells were also labeled with Hoechst 33342 (5 μg/ml) to provide measurements of cell cycle regulation (DNA content), changes in cell number, and multiple nuclear morphology measurements including chromatin condensation and nuclear size and shape.
To build a cellular systems biology profile of the cellular response to GFP-Htt aggregation and compound treatment, the following example cellular systems biology response profile features can be calculated from responses of cell populations either expressing GFP-Htt or not expressing GFP-Htt that can be separated mathematically from each other and analyzed separately.

SMILES | cell number (PC12-HttQ103 cells; 200 nM RSL1, as a function of treatment time) | % cells with aggregates (PC12-HttQ103 cells; 200 nM RSL1 induction) [%] | compound induced modulation of cell cycle regulation (2 n/4 n distribution ratio) (PC12T cells; cells with GFP-Htt aggregates versus cells without aggregates, 26 h treatment) | sensitivity to the microtubule destabilizing activity (PC12T cells; cells with aggregates versus cells without aggregates) | Nocodazole-induced cell cycle regulation and nuclear morphological changes (PC12T cells; in cells containing GFP-Htt aggregates)
CCc1c(OC)cccc1C(=O)NN(C(=O)c1cc(C)cc(C)c1)C(C)(C)C [RSL1] | decreased | 50 |  |  | 
COC(=O)Nc1nc2ccc(C(=O)c3cccs3)cc2[nH]1 [nocodazole] |  |  | less responsive | greater sensitivity | partially inhibited
